Experimental data published in US4016259A, “Contraceptive polypeptides” (Research Corporation, priority 1975, dated 1977).
Peptide text beside a SMILES is read from it.

Columns and labels:
Hamster = assay: Female Anti-Fertility test (Table I), implants counted at autopsy; assay type: in vivo; conditions: subc., saline, days (-4)-(-1), autopsy day 10
Protocol: In one study carried out with hamsters Thr-Pro-Arg-Lys as the diacetate was administered subcutaneously in isotonic solution at dosage levels of 2, […], once daily starting on the day of postovulatory discharge (-4) prior to mating. Treatment was continued until the fourth day after ovulation. The animals were mated and then sacrificed on the tenth day. The uterus was opened, and the number of implants counted.
TEST Female Anti-Fertility
ROUTE OF ADMINISTRATION Subc.
Once daily for four days, starting on the day
of postovulatory discharge, prior to mating.

hamsters = assay: Control of pregnancy in hamsters, compound in phosphate buffer pH 7.1 subcutaneously or orally; assay type: in vivo, hamster

In the case of C[C@@H](O)[C@H](N)C(=O)N1CCC[C@H]1C(=O)N[C@@H](CCCNC(=N)N)C(=O)N[C@@H](CCCCN)C(=O)O [Thr-Pro-Arg-Lys, threonyl-prolyl-arginyl-lysine] (H-TPRK-OH), the “Average No. of Implants” value (Hamster; daily dose 2.0 μg/100 mg) is reported as 0.5, the “Total No. of Normal Fetuses” value (Hamster; daily dose 2.0 μg/100 mg) is reported as 5 and the “Total No. of Resorbing Fetuses” value (Hamster; daily dose 2.0 μg/100 mg) is reported as 0. The “No. of Animals with Implantations” value (Hamster; daily dose 2.0 μg/100 mg, 10/10 sperm +) was 1, the “Average No. of Implants” value (Hamster; daily dose 10.0 μg/100 mg) was 4.6 and the “Total No. of Normal Fetuses” value (Hamster; daily dose 10.0 μg/100 mg) was 46. For the same molecule, the “Total No. of Resorbing Fetuses” value (Hamster; daily dose 10.0 μg/100 mg) was 3, the “No. of Animals with Implantations” value (Hamster; daily dose 10.0 μg/100 mg, 10/10 sperm +) was 4 and the “Average No. of Implants” value (Hamster; daily dose 100.0 μg/100 mg) was 5.9. The “Total No. of Normal Fetuses” value (Hamster; daily dose 100.0 μg/100 mg) was 53, the “Total No. of Resorbing Fetuses” value (Hamster; daily dose 100.0 μg/100 mg) was 1 and the “No. of Animals with Implantations” value (Hamster; daily dose 100.0 μg/100 mg, 9/10 sperm +) was 4. For the same molecule, the number of pregnancies (hamsters; administered orally at 35 to 50 μg/100 gm/day) was “reduced to zero”, the “number of implantations per animal” value (hamsters; subcutaneous, phosphate buffer pH 7.1, at 0.7 mcg/gm/day) was “less than one” and the “effective dose (number of implantations per animal reduced to less than one)” value (hamsters; subcutaneous, phosphate buffer pH 7.1, calculated as free base) was 0.7 mcg/gm/day.
